From ChEMBL document CHEMBL1158152, “(D)-2-tert-Butoxycarbonylamino-5,5-difluoro-5-phenyl-pentanoic acid: synthesis and incorporation into the growth hormone secretagogues” (Bioorg Med Chem Lett, 2008)
pEC50: −log10 of the molar value.

Key:
[1] = target: Growth hormone secretagogue receptor type 1 (Homo sapiens, UniProt Q92847); assay: Agonist activity at GHS receptor; type: functional
[2] = Volume of distribution at steady state in rat at 5 umole/kg, iv; type: ADME, organism-based; details: in vivo, read-out: Vdss
[3] = Oral bioavailability in rat at 15 umole/kg; type: ADME, organism-based; details: in vivo
Rattus norvegicus = assay: Increase in GH level in acute anesthetized rat at 1.74 umol/kg, iv after 15min relative to control; type: functional
[4] = Cmax in rat at 15 umole/kg, po; type: ADME, organism-based; design: route oral; details: in vivo
[5] = Tmax in rat at 15 umole/kg, po; type: ADME, organism-based; details: in vivo
[6] = AUC in rat at 5 umole/kg, iv; type: ADME, organism-based; details: plasma
[7] = AUC in rat at 15 umole/kg, po; type: ADME, organism-based; details: plasma
[8] = Half life in rat at 5 umole/kg, iv; type: ADME, organism-based; details: in vivo
[9] = Mean residence time in rat at 5 umole/kg, iv; type: ADME, organism-based; details: in vivo
[10] = Clearance in rat at 5 umole/kg, iv; type: ADME, organism-based; details: in vivo
[11] = Clearance in rat at 10 umole/kg, iv; type: ADME, organism-based; details: in vivo
[12] = Volume of distribution at steady state in rat at 10 umole/kg, iv; type: ADME, organism-based; details: in vivo, read-out: Vdss
[13] = Oral bioavailability in rat at 10 umole/kg; type: ADME, organism-based; details: in vivo
[14] = Cmax in rat at 10 umole/kg, po; type: ADME, organism-based; design: route oral; details: in vivo
[15] = Tmax in rat at 10 umole/kg, po; type: ADME, organism-based; details: in vivo
[16] = AUC in rat at 10 umole/kg, iv; type: ADME, organism-based; details: plasma
[17] = AUC in rat at 10 umole/kg, po; type: ADME, organism-based; details: plasma
[18] = Half life in rat at 10 umole/kg, iv; type: ADME, organism-based; details: in vivo, read-out: AUC (converted)
[19] = Mean residence time in rat at 10 umole/kg, iv; type: ADME, organism-based; details: in vivo

Growth hormone secretagogue receptor type 1, sequence (Q92847 whole entry): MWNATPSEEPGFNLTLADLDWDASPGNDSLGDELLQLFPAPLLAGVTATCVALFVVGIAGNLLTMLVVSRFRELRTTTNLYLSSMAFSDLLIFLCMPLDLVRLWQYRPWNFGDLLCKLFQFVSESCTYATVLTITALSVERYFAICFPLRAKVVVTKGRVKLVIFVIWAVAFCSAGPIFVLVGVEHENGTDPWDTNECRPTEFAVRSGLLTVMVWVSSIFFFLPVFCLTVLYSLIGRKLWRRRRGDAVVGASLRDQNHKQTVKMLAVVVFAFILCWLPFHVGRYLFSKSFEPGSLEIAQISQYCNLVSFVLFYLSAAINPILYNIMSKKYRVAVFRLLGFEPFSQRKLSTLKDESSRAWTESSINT

pEC50 [1]	Vd [2] [L/kg]	bioavailability [3] [%]	Cmax [4] [nM]	Tmax [5] [h]	AUC [6] [µM·h]	AUC [7] [µM·h]	half-life [8] [h]	MRT [9] [h]	clearance [10] [mL/min/kg]	clearance [11] [mL/min/kg]	Vd [12] [L/kg]	bioavailability [13] [%]	Cmax [14] [nM]	Tmax [15] [h]	AUC [16] [µM·h]	AUC [17] [µM·h]	half-life [18] [h]	MRT [19] [h]	Structure (SMILES)	Activity (Rattus norvegicus) [%]
9.05	–	–	–	–	–	–	–	–	–	–	–	–	–	–	–	–	–	–	CC(C)(N)C(=O)N[C@H](CCC(F)(F)c1ccccc1)c1nnnn1CCC#N	–
–	6.4	9.2	68	0.7	0.401	0.11	0.7	0.5	213	–	–	–	–	–	–	–	–	–	CC(C)(N)C(=O)N[C@H](COCc1ccccc1)c1nnnn1CCOC(=O)NCCCCO	750
9.57	–	–	–	–	–	–	–	–	–	183	16	26	166	1.6	0.901	0.239	2.4	1.4	CC(C)(N)C(=O)N[C@H](CCC(F)(F)c1ccccc1)c1nnnn1CCOC(=O)NCCCCO	1934
